Measurements from paper PMC8414367, “(E)-7-Ethylidene-lithocholic Acid (7-ELCA) Is a Potent Dual Farnesoid X Receptor (FXR) Antagonist and GPBAR1 Agonist Inhibiting FXR-Induced Gene Expression in Hepatocytes and Stimulating Glucagon-like Peptide-1 Secretion From Enteroendocrine Cells” (Frontiers in Pharmacology, 2021).

What was measured:
[1] = tested on: GPBAR1 mRNA, NCI-H716 cells; assay: GPBAR1 mRNA expression in differentiated NCI-H716 cells; type: cell-based, human; conditions: 10 µM, 2 h
Procedure: FIGURE 8 Effects of 7-alkylated derivatives of CDCA and 7-ELCA on the membrane receptor GPBAR1. […]. (B) CRE-luc activation depends on the presence of GPBAR1. (C) Effects of LCA and 7-ELCA (both at 10 µM) on intracellular generation of cAMP in differentiated NCI-H716 cells after 30 min treatment. The increase in cAMP level (ΔcAMP) is presented as the difference between cAMP concertation in the treated sample after subtraction of the cAMP in the nontreated control sample. (D) Concentration-response curves for activation of GPBAR1 by LCA and 7-ELCA. EC50 values were calculated using nonlinear fitting of concentration-response curves. […] (G) 7-ELCA (10 µM) increases GLP-1 secretion in siRNA control but not in siRNA Gpbar1 transfected GLUTag cells after 1 h treatment. GLP-1 was normalized to protein concentration and GPBAR1 mRNA expression to GAPDH mRNA. Data are presented as a fold to control nontreated (NT) samples. Forskolin (FSK, 10 µM) was used as a GPBAR1-independent activator of cAMP production.

GLUTag cells [2] = assay: GLP-1 secretion in siRNA control or Gpbar1 siRNA transfected GLUTag cells; type: cell-based, murine; conditions: 10 µM, 1 h
Procedure: GLUTag cells were transfected with non-targeting scrambled siRNA (siRNA control) or with the combination of siRNAs specific for Gpbar1 (Silencer® Select Pre-designed siRNA, LOT# ASO2HKN6 and ASO2HKN7, Life Technologies, Carlsbad, CA, United States) twice at 24 and 72 h after seeding using Lipofectamine RNAiMAX reagent (Life Technologies, Carlsbad, CA, United States). GLUTag cells were then treated with tested molecules at the day 4 post-seeding.
FIGURE 8 Effects of 7-alkylated derivatives of CDCA and 7-ELCA on the membrane receptor GPBAR1. […] . (B) CRE-luc activation depends on the presence of GPBAR1. (C) Effects of LCA and 7-ELCA (both at 10 µM) on intracellular generation of cAMP in differentiated NCI-H716 cells after 30 min treatment. The increase in cAMP level (ΔcAMP) is presented as the difference between cAMP concertation in the treated sample after subtraction of the cAMP in the nontreated control sample. (D) Concentration-response curves for activation of GPBAR1 by LCA and 7-ELCA. EC50 values were calculated using nonlinear fitting of concentration-response curves. […] (G) 7-ELCA (10 µM) increases GLP-1 secretion in siRNA control but not in siRNA Gpbar1 transfected GLUTag cells after 1 h treatment. GLP-1 was normalized to protein concentration and GPBAR1 mRNA expression to GAPDH mRNA. Data are presented as a fold to control nontreated (NT) samples. […]

GLUTag cells [3] = assay: MTS viability assay; type: cell-based, murine; conditions: Mus musculus, 24 h, read-out: IC50, cell viability
Procedure: In addition, we examined the potential effect of 7-ethylidene-lithocholic acid (7-ELCA) on viability in murine colonic GLUTag cells. IC50 for 7-ELCA in the cell line remains above 200 µM.
Figure S1. Cell viability in GluTag cells was determined using the Cell Titer 96 Aqueous One Solution Cell Proliferation Assay (Promega) after treatment with 7-ethylidene-lithocholic acid (7-ELCA) for 24 h. Vehicle (0.1% DMSO) and background (10% SDS; v/v, toxic control) controls of cell viability were set to be 100% and 0%, respectively. IC50 is greater than 200 µM.

vitamin D receptor (VDR) = vitamin D receptor (VDR) (Homo sapiens, UniProt P11473); assay: Nuclear receptor specificity luciferase reporter assay in HepG2 cells
Procedure: (§1) For transient transfection, HepG2 cells were seeded at the density of 40,000 cells/cm^2. […] The next day, cells were challenged with tested ligands in indicated concentrations for 5 h. […] All the other transient transfection reporter gene assays were performed with Lipofectamine® 3000 (ThermoFisher Scientific). Briefly, cells were transfected with 150 ng/well luciferase reporter gene constructs (p(DR3)3-luc, SHP-luc, p3A4-luc, pTAT-(GRE)2-TK-luc, p2B6-luc, pGL4.35[luc2P⁄9XGAL4UAS⁄Hygro]), FXRE-luc together with 100 ng/well of the corresponding full-length fragment nuclear receptor expression vectors (pSG5-hVDR, pSG5-hFXR, pSG5-hRXRα, pSG5-hPXR, CAR3 variant) or the ligand binding domains of human, pCMX-GAL4-hFXR, pCMX-GA4L-LXRα, pCMX-GA4L-LXRα, pCMX-GA4L-TRα, pCMX-GA4L-PPARα, pCMX-GAL4-PPARγ, pCMX-GAL4-PPARδ) and 30 ng/well of pRL-TK Renilla luciferase vector 24 h prior to the treatment. […] The firefly luciferase activity was measured using the Dual Luciferase® Reporter Assay System (Promega) and normalized to Renilla luciferase activity. Experiments in an agonistic mode were performed with OCA, CDCA or tested compounds (all compounds at 10 μM). […] EC50 and IC50 were calculated using GraphPad PRISM ver. […]
(§2) Data were normalized to Renilla luciferase activity and are expressed as fold activation relative to control (nontreated, NT) cells. […]

[4] = target: constitutive androstane receptor (CAR) (Homo sapiens, UniProt Q14994, DEL233-236); assay: as above
Procedure: as §1, §2

PPARγ = PPARγ (Homo sapiens, UniProt P37231); assay: as above
Procedure: as §1, §2

PPARβ/δ = PPARβ/δ (Homo sapiens, UniProt Q03181); assay: as above
Procedure: as §1, §2

LXRα = LXRα (Homo sapiens, UniProt Q13133); assay: as above
Procedure: as §1, §2

LXRβ = LXRβ (Homo sapiens, UniProt P55055); assay: as above
thyroid receptor (TRα) = thyroid receptor (TRα) (Homo sapiens, UniProt P10827); assay: as above
Chain of thyroid receptor (TRα) (P10827 163-410 isoform P10827-2 limits assumed): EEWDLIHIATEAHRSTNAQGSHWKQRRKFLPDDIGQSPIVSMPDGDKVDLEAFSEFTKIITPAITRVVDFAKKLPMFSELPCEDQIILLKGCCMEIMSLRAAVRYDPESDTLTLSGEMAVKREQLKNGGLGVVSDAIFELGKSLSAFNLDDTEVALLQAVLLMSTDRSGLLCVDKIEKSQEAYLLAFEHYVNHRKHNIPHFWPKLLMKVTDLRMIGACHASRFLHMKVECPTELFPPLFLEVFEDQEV

Chain of PPARγ (P37231 238-503 limits assumed): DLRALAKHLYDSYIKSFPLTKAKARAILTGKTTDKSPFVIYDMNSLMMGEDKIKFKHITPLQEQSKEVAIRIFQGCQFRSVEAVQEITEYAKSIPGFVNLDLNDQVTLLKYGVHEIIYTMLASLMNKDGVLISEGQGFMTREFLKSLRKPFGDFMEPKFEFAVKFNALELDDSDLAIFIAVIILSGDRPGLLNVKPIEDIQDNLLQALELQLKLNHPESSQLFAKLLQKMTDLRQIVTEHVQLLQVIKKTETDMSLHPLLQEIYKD
Chain of LXRβ (P55055 222-460 limits assumed): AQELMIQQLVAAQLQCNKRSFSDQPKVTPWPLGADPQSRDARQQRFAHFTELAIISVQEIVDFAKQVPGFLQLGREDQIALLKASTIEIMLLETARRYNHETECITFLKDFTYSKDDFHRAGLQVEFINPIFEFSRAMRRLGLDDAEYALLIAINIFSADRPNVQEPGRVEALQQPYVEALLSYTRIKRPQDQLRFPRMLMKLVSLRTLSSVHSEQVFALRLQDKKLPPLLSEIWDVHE
Chain of constitutive androstane receptor (CAR) (Q14994 with tags, fused parts or gaps isoform Q14994-8 DEL233-236): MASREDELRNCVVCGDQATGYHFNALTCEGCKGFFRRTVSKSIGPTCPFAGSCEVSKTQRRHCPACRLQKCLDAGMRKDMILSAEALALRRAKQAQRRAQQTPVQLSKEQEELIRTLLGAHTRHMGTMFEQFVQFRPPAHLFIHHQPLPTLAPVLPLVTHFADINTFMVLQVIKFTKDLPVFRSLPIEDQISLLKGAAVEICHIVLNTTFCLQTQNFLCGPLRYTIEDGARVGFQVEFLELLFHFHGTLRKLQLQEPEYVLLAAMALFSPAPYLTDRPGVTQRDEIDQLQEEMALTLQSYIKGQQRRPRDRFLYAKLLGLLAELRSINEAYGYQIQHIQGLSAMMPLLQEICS
Chain of constitutive androstane receptor (CAR) (P19793 whole entry partner): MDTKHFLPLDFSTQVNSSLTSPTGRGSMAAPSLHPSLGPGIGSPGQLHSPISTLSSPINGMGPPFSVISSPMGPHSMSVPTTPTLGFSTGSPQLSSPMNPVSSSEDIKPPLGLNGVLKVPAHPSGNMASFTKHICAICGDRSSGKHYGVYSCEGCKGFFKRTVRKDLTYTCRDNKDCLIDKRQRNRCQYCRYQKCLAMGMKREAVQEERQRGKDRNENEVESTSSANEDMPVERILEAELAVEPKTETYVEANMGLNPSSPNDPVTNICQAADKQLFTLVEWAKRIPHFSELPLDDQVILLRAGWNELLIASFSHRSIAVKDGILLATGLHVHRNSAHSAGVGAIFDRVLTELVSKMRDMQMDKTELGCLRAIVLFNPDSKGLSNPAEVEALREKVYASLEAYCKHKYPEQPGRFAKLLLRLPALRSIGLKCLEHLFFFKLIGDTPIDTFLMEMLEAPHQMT
Chain of PPARβ/δ (Q03181 211-439 limits assumed): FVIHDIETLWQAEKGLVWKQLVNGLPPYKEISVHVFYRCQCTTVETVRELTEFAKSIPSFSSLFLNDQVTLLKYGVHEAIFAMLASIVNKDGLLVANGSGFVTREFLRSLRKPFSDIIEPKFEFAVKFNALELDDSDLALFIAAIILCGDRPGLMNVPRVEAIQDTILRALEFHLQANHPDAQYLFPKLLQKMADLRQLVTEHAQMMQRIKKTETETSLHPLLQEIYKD
Chain of LXRα (Q13133 209-447 limits assumed): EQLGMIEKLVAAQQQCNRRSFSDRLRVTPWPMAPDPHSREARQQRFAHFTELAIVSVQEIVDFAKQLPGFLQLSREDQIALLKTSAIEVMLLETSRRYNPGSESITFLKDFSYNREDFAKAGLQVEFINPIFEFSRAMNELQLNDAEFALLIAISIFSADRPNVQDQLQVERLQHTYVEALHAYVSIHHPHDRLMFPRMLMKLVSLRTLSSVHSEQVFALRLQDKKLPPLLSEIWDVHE
Chain of vitamin D receptor (VDR) (P11473 whole entry): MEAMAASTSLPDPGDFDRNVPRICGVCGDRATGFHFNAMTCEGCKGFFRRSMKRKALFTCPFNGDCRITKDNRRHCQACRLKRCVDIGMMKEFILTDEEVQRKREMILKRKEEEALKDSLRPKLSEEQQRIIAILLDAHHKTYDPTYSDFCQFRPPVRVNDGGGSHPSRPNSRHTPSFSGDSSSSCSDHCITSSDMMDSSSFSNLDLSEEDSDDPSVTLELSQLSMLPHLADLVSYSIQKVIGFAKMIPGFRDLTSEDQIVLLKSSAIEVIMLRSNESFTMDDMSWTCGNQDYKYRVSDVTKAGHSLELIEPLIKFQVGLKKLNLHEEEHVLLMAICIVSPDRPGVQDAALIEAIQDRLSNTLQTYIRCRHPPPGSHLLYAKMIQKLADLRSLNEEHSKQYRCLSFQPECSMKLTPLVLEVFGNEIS

## C/C=C1\C[C@@H]2C[C@H](O)CC[C@]2(C)[C@H]2CC[C@]3(C)[C@@H]([C@H](C)CCC(=O)O)CC[C@H]3[C@H]12 [2a, (E)-3α-Hydroxy-7-ethylidene-5β-cholan-24-oic acid]
[1]
  GPBAR1 mRNA expression: increase GPBAR1 mRNA expression
GLUTag cells [2]; Gpbar1 siRNA transfected GLUTag cells
  GLP-1 secretion: did not lead to the significantly increased GLP-1 production
GLUTag cells [2]; siRNA control GLUTag cells
  GLP-1 secretion: significant increase of the GLP-1 secretion
GLUTag cells [3]
  IC50: > 200 µM
Vitamin D receptor (VDR); 10 µM, with 1α,25(OH)2vitaminD3 10 nM
  antagonism of VDR activation by model ligand: did not antagonize
Vitamin D receptor (VDR); agonistic assay, 24 h
  activation of VDR: did not activate
[4]; 10 µM, with CITCO 1 µM
  antagonism of CAR activation by model ligand: did not antagonize
[4]; agonistic assay, 24 h
  activation of CAR: did not activate
PPARγ; 10 µM, with rosiglitazone 1 µM
  antagonism of PPARγ activation by model ligand: did not antagonize
PPARγ; agonistic assay, 24 h
  activation of PPARγ: did not activate
PPARβ/δ; 10 µM, with GW501516 1 µM
  antagonism of PPARβ/δ activation by model ligand: did not antagonize
PPARβ/δ; agonistic assay, 24 h
  activation of PPARβ/δ: did not activate
LXRα; 10 µM, with GW3965 1 µM
  antagonism of LXRα activation by model ligand: did not antagonize
LXRα; agonistic assay, 24 h
  activation of LXRα: did not activate
LXRβ; 10 µM, with GW3965 1 µM
  antagonism of LXRβ activation by model ligand: did not antagonize
LXRβ; agonistic assay, 24 h
  activation of LXRβ: did not activate
Thyroid receptor (TRα); 10 µM, with thyroxin 1 µM
  antagonism of TRα activation by model ligand: did not antagonize
Thyroid receptor (TRα); agonistic assay, 24 h
  activation of TRα: did not activate
